In patent US8415305B2, “Use of cyclic depsipeptides to inhibit kallikrein 7” (Novartis AG, priority 2007, dated 2013) one finds IC50 data, which are given here for 4 molecules.

Chain of human kallikrein 7 (hKallikrein7) (P49862 30-253): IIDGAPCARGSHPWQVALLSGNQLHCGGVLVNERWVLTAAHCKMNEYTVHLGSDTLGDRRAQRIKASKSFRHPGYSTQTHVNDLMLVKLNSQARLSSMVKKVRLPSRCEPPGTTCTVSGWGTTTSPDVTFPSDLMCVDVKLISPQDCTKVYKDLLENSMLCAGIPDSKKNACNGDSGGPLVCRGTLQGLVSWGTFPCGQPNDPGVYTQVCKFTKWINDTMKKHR

For this test, the target named is human kallikrein 7 (hKallikrein7) (Homo sapiens, UniProt P49862). In words: Kallikrein 7 fluorescence-quenched substrate enzymatic assay (IC50). It counts as biochemical. The protocol:
An “inhibitor” is a cyclic depsipeptide that inhibits an enzymatic reaction with a measure IC50 of less than […], for instance 50 μM, 30 μM, 20 μM or 10 μM. Particularly preferred are cyclic depsipeptides with an IC50 of less than 30 μM for human kallikrein 7, for instance cyclic depsipeptides with an IC50 of less than 10 μM, 1 μM, 100 nM, 50 nM, 40 nM, 30 nM, 20 nM, 10 nM, or less. IC50 for human kallikrein can be measured using the fluorescence-quenched substrate Ac-Glu-Asp(EDANS)-Lys-Pro-lle-Leu-Phe^Arg-Leu-Gly-Lys(DABCYL)-Glu-NH2 (SEQ ID NO 1) (where ^ indicates the scissile bond, identified by MS analysis) which can be purchased from Biosyntan (Berlin, Germany). Enzymatic reactions are conducted in 50 mM sodium citrate buffer at pH 5.6 containing 150 mM NaCl and 0.05% (w/v) CHAPS. For the determination of IC50 values the assay is performed at room temperature in 384-well plates. All final assay volumes are 30 μl. Test compounds are dissolved in 90% (v/v) DMSO/water and diluted in water (containing 0.05% (w/v) CHAPS) to 3-times the desired assay concentration. The 11 final compound concentrations are: 0.3 nM, 1 nM, 3 nM, 10 nM, 30 nM, 100 nM, 300 nM, 1 μM, 3 μM, 10 μM and 30 μM. For each assay, 10 μl water/CHAPS (±test compound) are added per well, followed by 10 μl protease solution (diluted with 1.5× assay buffer). The protease concentration in final assay solution is 0.2 nM (according to the enzyme concentrations determined by the Bradford method). After 1 hour of incubation at room temperature, the reaction is started by addition of 10 μl substrate solution (substrate dissolved in 1.5× assay buffer, final concentration is 2 μM). The effect of the compound on the enzymatic activity is obtained from the linear progress curves and determined from two readings, the first one taken directly after the addition of substrate (t=0 min) and the second one after 1 hour (t=60 min). The IC50 value is calculated from the plot of percentage of inhibition vs. inhibitor concentration using non-linear regression analysis software (XLfit, Vers. 4.0; ID Business Solution Ltd., Guildford, Surrey, UK).
The fluorescence-quenched substrate Ac-Glu-Asp(EDANS)-Lys-Pro-lle-Leu-Phe^Arg-Leu-Gly-Lys(DABCYL)-Glu-NH2 (SEQ ID NO1) (where ^ indicates the scissile bond, identified by MS analysis) is purchased from Biosyntan (Berlin, Germany) and kept as a 5 mM stock solution in DMSO at −20° C. All other chemicals are of analytical grade. […]
For fluorescence intensity (FI) measurements an Ultra Evolution reader (TECAN, Maennedorf, Switzerland) is used. The instrument is equipped with a combination of a 350 nm (20 nm bandwidth) and a 500 nm (25 nm bandwidth) bandpath filter for fluorescence excitation and emission acquisition, respectively. […]
For the molecule `CCC(C)[C@@H]1NC(=O)[C@H](Cc2ccc(O)cc2)N(C)C(=O)[C@H](C(C)CC)N2C(=O)C(CC[C@@H]2O)NC(=O)[C@H](CC(C)C)NC(=O)[C@H](NC(=O)[C@H](CCC(N)=O)NC(=O)C(C)C)[C@@H](C)OC1=O` (stereo partly shown) [formula (II)], the IC50 was found to be 1 nM.

Take `CCC(C)[C@@H]1NC(=O)[C@H](Cc2ccc(O)cc2)N(C)C(=O)[C@H](C(C)CC)N2C=CC[C@H](NC(=O)[C@H](CC(C)C)NC(=O)[C@H](NC(=O)[C@H](CCC(N)=O)NC(=O)C(C)C)[C@@H](C)OC1=O)C2=O` (stereo partly shown) [formula (V)]: the IC50 is 6 nM. For `CCC(C)C(=O)N[C@@H](CCC(N)=O)C(=O)NC1C(=O)N[C@@H](CC(C)C)C(=O)NC2CC[C@H](O)N(C2=O)[C@@H](C(C)CC)C(=O)N(C)[C@@H](Cc2ccc(O)cc2)C(=O)N[C@@H](C(C)CC)C(=O)O[C@@H]1C` (stereo partly shown) [formula (III)], the IC50 is 0.4 nM.

For `CCC(C)C(=O)N[C@@H](CCC(N)=O)C(=O)N[C@H]1C(=O)N[C@@H](CC(C)C)C(=O)N[C@H]2CC=CN(C2=O)[C@@H](C(C)CC)C(=O)N(C)[C@@H](Cc2ccc(O)cc2)C(=O)N[C@@H](C(C)CC)C(=O)O[C@@H]1C` (stereo partly shown) [formula (IV)], the IC50 was 5 nM.

For orientation: IC50 means the concentration needed to halve the response being measured.
